Assays:
[1] = test system: sperm cells (whole semen); test: Sperm motility of treated whole semen scored by differential interference microscopy (DIC); type: cell-based, human
Description: (§1) The general experimental protocol was as follows: Whole semen, obtained from human subjects after informed consent, was treated with various concentrations of fluorous surfactants. Samples were incubated for 5-10 min at 37° C. and 5% CO2. Semen samples were diluted in an isotonic buffered human sperm medium containing glucose. Sperm motility was scored as “% motility” using differential interference microscopy (“DIC”). Cell necropsy was determined by propidium iodide (“PI”) staining, which is known to stain the DNA of dead cells, and “% death” was scored using epifluorescence microscopy (stained and unstained sperm cells were counted to obtain a live/dead ratio). Acrosome integrity was determined with epifluorescence microscopy and fluorescein-conjugated Pisum sativum agglutinin (“FITC-PSA”) staining, the staining patterns of which are known to indicate the status of the acrosomal membrane.
(§2) To validate the general experimental protocol, the motility of whole semen treated with N-9 for 5 min was determined using DIC microscopy and PI staining Results are presented in Table 1.

[2] = test system: sperm cells (whole semen); test: Sperm cell necropsy by propidium iodide (PI) staining, epifluorescence microscopy; type: cell-based, human
Description: as §1, §2

[3] = test system: acrosome of human spermatozoa; test: Acrosome integrity by FITC-PSA staining, epifluorescence microscopy; type: cell-based; conditions: average; for Type I: bright acrosome; for Type III: equatorial segment; for Type II: medium acrosome; for Type IV: no labeling
Description: as §1
Staining with fluorescein isothiocyanate Pisium sativum agglutinin (“FITC-PSA”) is known to stain components of the acrosome, and the staining pattern differs depending on the condition of the acrosomal membrane. This technique may be used to identify whether the acrosome is intact. Various patterns of fluorescence are seen after labeling of air-dried human spermatozoa with FITC lectins, including a bright acrosome (Type I), a medium acrosome (Type II), an equatorial segment (Type III), and no labeling (Type IV). See, e.g., Mortimer et al., “Specific Labelling by Peanut Agglutinin of The Outer Acrosomal Membrane of The Human Spermatozoon,” J. Reprod. Fert. 81, 127-35 (1987). Averages of FTIC-PSA results are presented in Table 6, which includes percentages of acrosomes compromised and types of sperm visualized in the control and treated samples.

Escherichia coli = test: Effects on microbes: growth inhibition of E. coli; type: cell-based
Source text: (§3) Fluorous surfactants also disrupt the membranes of pathogenic microbes, and they therefore have microbicidal activities. Preferably, they are toxic to pathogenic microorganisms, yet compatible with the flora normally found in human mucosal (e.g., vaginal) tissues. The effects of various fluorous surfactants on some laboratory models of pathogenic microorganisms (Escherichia coli, Saccharomyces cerevisiae, and Candida albicans) were studied.

Candida albicans = test: Effects on microbes: growth inhibition of Candida albicans; type: cell-based; conditions: for inhibition of growth of Candida: 400 mM
Source text: as §3

HeLa cells = test: Effects on HeLa (cervix) cells, morphology by microscopy; type: cell-based, human; conditions: 1.76 mM, 30 min
Source text: The effects of nonoxynol-9 and various fluorous surfactants on HeLa cells, which are a laboratory model for human cervical cells, were studied. […] Accordingly, it is believed that use of a spermicidal fluorous surfactant will be less irritating to human vaginal tissue.

O=S(=O)([O-])CCCOCC(F)(F)C(F)(F)F.[Na+] [F5-PS]
% Motility ([1]; 6%, 5 min): 1% | % Motility ([1]; 9%, 5 min): 0% | % Motility ([1]; 9%, 10 min): 0% | % Motility ([1]; 12%, 5 min): 0% | % Death ([2]; 6%, 5 min): 91% | % Death ([2]; 6%, 10 min): 99% | % Death ([2]; 9%, 5 min): 98% | % Death ([2]; 9%, 10 min): 96% | % Death ([2]; 12%, 5 min): 99%

OCCOCCOCCOCC(F)(F)C(F)(F)F [F5-TEG, F5-triethylene glycol]
% Motility ([1]; 4%, 5 min): 0% | % Motility ([1]; 5%, 5 min): 0% | % Motility ([1]; 6%, 5 min): 0% | % Motility ([1]; 7%, 5 min): 0% | % Motility ([1]; 8%, 5 min): 0% | % Motility ([1]; 9%, 5 min): 0% | % Motility ([1]; 10%, 5 min): 0% | % Motility ([1]; 10%, 10 min): 0% | % Motility ([1]; 12%, 5 min): 0% | % Motility ([1]; 15%, 5 min): 0% | % Motility ([1]; 15%, 10 min): 0% | % Death ([2]; 4%, 5 min): 100% | % Death ([2]; 5%, 5 min): 96% | % Death ([2]; 6%, 5 min): 100% | % Death ([2]; 7%, 5 min): 98% | % Death ([2]; 8%, 5 min): 99% | % Death ([2]; 9%, 5 min): 100% | % Death ([2]; 10%, 5 min): 100% | % Death ([2]; 10%, 10 min): 100% | % Death ([2]; 12%, 5 min): 96% | % Death ([2]; 15%, 5 min): 94% | % Death ([2]; 15%, 10 min): 100% | Acrosome Compromised ([3]; 5%): 95% | Acrosome Not Compromised ([3]; 5%): 5% | Type I ([3]; 5%): 5% | Type III ([3]; 5%): 3% | Type II ([3]; 5%): 28% | Type IV ([3]; 5%): 64% | Acrosome Compromised ([3]; 6%): 98% | Acrosome Not Compromised ([3]; 6%): 2% | Type I ([3]; 6%): 2% | Type III ([3]; 6%): 1% | Type II ([3]; 6%): 3% | Type IV ([3]; 6%): 93% | Acrosome Compromised ([3]; 10%): 67% | Acrosome Not Compromised ([3]; 10%): 33% | Type I ([3]; 10%): 33% | Type III ([3]; 10%): 2% | Type II ([3]; 10%): 26% | Type IV ([3]; 10%): 38% | inhibition to growth of E. coli relative to non-fluorous homologs (Escherichia coli): greater inhibition | inhibition of E. coli relative to F7-TEG (Escherichia coli; comparable doses): less inhibition | inhibition of Candida relative to F7-TEG (Candida albicans): somewhat less inhibitory

O=S(=O)([O-])CCCOCC(F)(F)C(F)(F)C(F)(F)F.[Na+] [F7-PS, sodium 3-(2,2,3,3,4,4,4-heptafluoro-butoxy)-propane-1-sulfonate]
% Motility ([1]; 4%, 5 min): <1% | % Motility ([1]; 5%, 5 min): <1% | % Motility ([1]; 5%, 10 min): 0% | % Motility ([1]; 7%, 5 min): 0% | % Death ([2]; 4%, 5 min): 90% | % Death ([2]; 4%, 10 min): 99% | % Death ([2]; 5%, 5 min): 96% | % Death ([2]; 5%, 10 min): 96% | % Death ([2]; 7%, 5 min): 100% | Acrosome Compromised ([3]; 3%): 36% | Acrosome Not Compromised ([3]; 3%): 64% | Type I ([3]; 3%): 64% | Type III ([3]; 3%): 0% | Type II ([3]; 3%): 13% | Type IV ([3]; 3%): 22% | Acrosome Compromised ([3]; 4%): 100% | Acrosome Not Compromised ([3]; 4%): 0% | Type I ([3]; 4%): 0% | Type III ([3]; 4%): <1% | Type II ([3]; 4%): 4% | Type IV ([3]; 4%): 95% | Acrosome Compromised ([3]; 7%): 41% | Acrosome Not Compromised ([3]; 7%): 59% | Type I ([3]; 7%): 59% | Type III ([3]; 7%): 0% | Type II ([3]; 7%): 40% | Type IV ([3]; 7%): 1% | inhibition of E. coli (Escherichia coli; 250 mM, compared with F7-TEG/F5-TEG treatments): comparable inhibition | inhibition of growth of Candida (Candida albicans; exposure in the order of 24 hours): significant inhibition of growth | inhibition of growth of Candida (Candida albicans; exposure limited to 3 or 6 hours): allowed recovery of growth

OCCOCCOCCOCC(F)(F)C(F)(F)C(F)(F)F [F7-TEG, F7-triethylene glycol]
% Motility ([1]; 5%, 5 min): 0% | % Motility ([1]; 6%, 5 min): 0% | % Motility ([1]; 7%, 5 min): 0% | % Motility ([1]; 8%, 5 min): 0% | % Motility ([1]; 9%, 5 min): 0% | % Motility ([1]; 10%, 5 min): 1% | % Motility ([1]; 12%, 5 min): 0% | % Motility ([1]; 15%, 5 min): 0% | % Motility ([1]; 15%, 10 min): 0% | % Death ([2]; 5%, 5 min): 97% | % Death ([2]; 5%, 10 min): 99% | % Death ([2]; 6%, 5 min): 98% | % Death ([2]; 7%, 5 min): 99% | % Death ([2]; 8%, 5 min): 100% | % Death ([2]; 9%, 5 min): 100% | % Death ([2]; 10%, 5 min): 95% | % Death ([2]; 12%, 5 min): 99% | % Death ([2]; 15%, 5 min): 98% | % Death ([2]; 15%, 10 min): 100% | Acrosome Compromised ([3]; 5%): 87% | Acrosome Not Compromised ([3]; 5%): 13% | Type I ([3]; 5%): 13% | Type III ([3]; 5%): <1% | Type II ([3]; 5%): 59% | Type IV ([3]; 5%): 28% | Acrosome Compromised ([3]; 6%): 88% | Acrosome Not Compromised ([3]; 6%): 13% | Type I ([3]; 6%): 13% | Type III ([3]; 6%): 5% | Type II ([3]; 6%): 25% | Type IV ([3]; 6%): 58% | Acrosome Compromised ([3]; 10%): 96% | Acrosome Not Compromised ([3]; 10%): 4% | Type I ([3]; 10%): 4% | Type III ([3]; 10%): 3% | Type II ([3]; 10%): 34% | Type IV ([3]; 10%): 59% | inhibition to growth of E. coli relative to non-fluorous homologs (Escherichia coli): greater inhibition | growth of E. coli (Escherichia coli; final concentrations of 1% or greater, 3 hours or longer): unable to grow | inhibition of Candida (Candida albicans; 5%, exposure 3 hours or longer): substantial inhibition

nonoxynol-9 [N-9, reference compound]
% Motility ([1]; 0.001%, 5 min, whole semen): 43% | % Motility ([1]; 0.005%, 5 min, whole semen): 60% | % Motility ([1]; 0.01%, 5 min, whole semen): <1% | % Motility ([1]; 0.1%, 5 min, whole semen): 0% | % Death ([2]; 0.001%, 5 min, PI staining): 38% | killing of sperm cells ([2]; 1.76 mM, 5 min): kill essentially all sperm cells | % Death ([2]; 0.005%, 5 min, PI staining): 60% | % Death ([2]; 0.01%, 5 min, PI staining): 67% | % Death ([2]; 0.1%, 5 min, PI staining): 94% | morphological changes of HeLa cells (HeLa cells): significant morphological changes

Reference: US20110237676A1, “SPERMICIDAL AND MICROBICIDAL COMPOSITIONS” (LEHIGH UNIVERSITY, priority 2007, published 2011)
